Tests used:
Experiment in all cases: NCI-60 SRB screen
Type in all cases: cell-based
[1] = system: HL-60(TB)
Description: (§1) Supplementary Figure l egend
(§2) 10μ M of CTR-20 was used to examine the drug’s efficac y against the NC I-60 cancer cell li nes including: six leukemia cell lines, nine non- small cell lung cancer cell lines, seven color ect al cancer cell lines, six CNS cancer cell lines, nine melanoma cell lines, seven ovari an can cer cell lines, seven ren al can cer cell lines, two prostate cancer cell lines and six breast cancer cell lines. The scr eenin g was car r ied out b y the US National Cancer Institute (NC I) us i n g a sulforhodamine B (SRB) colorimetric assay. […]
(§3) out by the NC I using five different doses of CTR -20.

[2] = system: UACC-62
Description: as §1, §2, §3

[3] = system: IGROV1
Description: as §1, §2, §3

[4] = system: 786-0
Description: as §1, §2, §3

[5] = system: SF-268
Description: as §1, §2, §3

[6] = system: OVCAR-3
Description: as §1, §2, §3

[7] = system: OVCAR-8
Description: as §1, §2, §3

[8] = system: BT-549
Description: as §1, §2, §3

[9] = system: U251
Description: as §1, §2, §3

[10] = system: TK-10
Description: as §1, §2, §3

[11] = system: HT29
Description: as §1, §2, §3

[12] = system: SF-539
Description: as §1, §2, §3

[13] = Homo sapiens, read-out: LC50 (the source's name)

## COc1ccc2[nH]c(=O)c(/C=C/C(=O)c3ccccc3OC)cc2c1 [CTR-20, (E)-6-Methoxy-3-(3-(2-methoxyphenyl)-3-oxoprop-1-enyl) quinolin-2(1H)-one]
[1]
  Log10GI50: -6.69 Molar
  Log10LC50: > -4.00 Molar
  Log10TGI: -6.05 Molar
  TGI: 8.83E-7 Molar
[1]; 1.00E-5 Molar
  Growth Percent: -2.46%
[1]; Homo sapiens
  GI50: 206 nM
[1]; [13]
  CC50: > 100 µM
[1]; Log10 Concentration -4.0
  Percent Growth: -37%
[1]; Log10 Concentration -5.0
  Percent Growth: -12%
[1]; Log10 Concentration -6.0
  Percent Growth: -4%
[1]; Log10 Concentration -7.0
  Percent Growth: 75%
[1]; Log10 Concentration -8.0
  Percent Growth: 97%
[2]
  Log10GI50: -6.32 Molar
  Log10LC50: -4.75 Molar
  Log10TGI: -5.53 Molar
  TGI: 2.97E-6 Molar
[2]; 1.00E-5 Molar
  Growth Percent: 25.73%
[2]; Homo sapiens
  GI50: 478 nM
[2]; [13]
  CC50: 17.9 µM
[2]; Log10 Concentration -4.0
  Percent Growth: -95%
[2]; Log10 Concentration -5.0
  Percent Growth: -35%
[2]; Log10 Concentration -6.0
  Percent Growth: 31%
[2]; Log10 Concentration -7.0
  Percent Growth: 90%
[2]; Log10 Concentration -8.0
  Percent Growth: 94%
[3]
  Log10GI50: -6.24 Molar
  Log10LC50: > -4.00 Molar
  Log10TGI: -4.77 Molar
  TGI: 1.70E-5 Molar
[3]; 1.00E-5 Molar
  Growth Percent: 14.55%
[3]; Homo sapiens, IGROV-1
  GI50: 582 nM
[3]; Homo sapiens, IGROV-1, read-out: LC50 (the source's name)
  CC50: > 100 µM
[3]; Log10 Concentration -4.0
  Percent Growth: -27%
[3]; Log10 Concentration -5.0
  Percent Growth: 8%
[3]; Log10 Concentration -6.0
  Percent Growth: 40%
[3]; Log10 Concentration -7.0
  Percent Growth: 82%
[3]; Log10 Concentration -8.0
  Percent Growth: 99%
[4]
  Log10GI50: -6.42 Molar
  Log10LC50: -5.29 Molar
  Log10TGI: -5.81 Molar
  TGI: 1.56E-6 Molar
[4]; 1.00E-5 Molar
  Growth Percent: 8.21%
[4]; Homo sapiens
  GI50: 378 nM
[4]; [13]
  CC50: 5.11 µM
[4]; Log10 Concentration -4.0
  Percent Growth: -97%
[4]; Log10 Concentration -5.0
  Percent Growth: -78%
[4]; Log10 Concentration -6.0
  Percent Growth: 19%
[4]; Log10 Concentration -7.0
  Percent Growth: 93%
[4]; Log10 Concentration -8.0
  Percent Growth: 91%
[5]
  Log10GI50: -6.16 Molar
  Log10LC50: -4.15 Molar
  Log10TGI: -4.98 Molar
  TGI: 1.05E-5 Molar
[5]; 1.00E-5 Molar
  Growth Percent: 9.36%
[5]; Homo sapiens
  GI50: 690 nM
[5]; [13]
  CC50: 70.4 µM
[5]; Log10 Concentration -4.0
  Percent Growth: -59%
[5]; Log10 Concentration -5.0
  Percent Growth: 1%
[5]; Log10 Concentration -6.0
  Percent Growth: 42%
[5]; Log10 Concentration -7.0
  Percent Growth: 93%
[5]; Log10 Concentration -8.0
  Percent Growth: 92%
[6]
  Log10GI50: -6.44 Molar
  Log10LC50: -5.03 Molar
  Log10TGI: -5.78 Molar
  TGI: 1.64E-6 Molar
[6]; 1.00E-5 Molar
  Growth Percent: 8.25%
[6]; Homo sapiens
  GI50: 359 nM
[6]; [13]
  CC50: 9.33 µM
[6]; Log10 Concentration -4.0
  Percent Growth: -96%
[6]; Log10 Concentration -5.0
  Percent Growth: -52%
[6]; Log10 Concentration -6.0
  Percent Growth: 14%
[6]; Log10 Concentration -7.0
  Percent Growth: 95%
[6]; Log10 Concentration -8.0
  Percent Growth: 102%
[7]
  Log10GI50: -6.06 Molar
  Log10LC50: -4.46 Molar
  Log10TGI: -4.94 Molar
  TGI: 1.16E-5 Molar
[7]; 1.00E-5 Molar
  Growth Percent: 1.18%
[7]; Homo sapiens
  GI50: 874 nM
[7]; [13]
  CC50: 34.4 µM
[7]; Log10 Concentration -4.0
  Percent Growth: -99%
[7]; Log10 Concentration -5.0
  Percent Growth: 7%
[7]; Log10 Concentration -6.0
  Percent Growth: 46%
[7]; Log10 Concentration -7.0
  Percent Growth: 109%
[7]; Log10 Concentration -8.0
  Percent Growth: 113%
[8]
  Log10GI50: -6.41 Molar
  Log10LC50: -4.72 Molar
  Log10TGI: -5.62 Molar
  TGI: 2.42E-6 Molar
[8]; 1.00E-5 Molar
  Growth Percent: 18.91%
[8]; Homo sapiens
  GI50: 387 nM
[8]; [13]
  CC50: 19.2 µM
[8]; Log10 Concentration -4.0
  Percent Growth: -97%
[8]; Log10 Concentration -5.0
  Percent Growth: -32%
[8]; Log10 Concentration -6.0
  Percent Growth: 20%
[8]; Log10 Concentration -7.0
  Percent Growth: 93%
[8]; Log10 Concentration -8.0
  Percent Growth: 91%
[9]
  Log10GI50: -6.28 Molar
  Log10LC50: -5.38 Molar
  Log10TGI: -5.77 Molar
  TGI: 1.70E-6 Molar
[9]; 1.00E-5 Molar
  Growth Percent: 5.14%
[9]; Homo sapiens, U-251
  GI50: 521 nM
  LC50: 4.21 µM
[9]; Log10 Concentration -4.0
  Percent Growth: -99%
[9]; Log10 Concentration -5.0
  Percent Growth: -98%
[9]; Log10 Concentration -6.0
  Percent Growth: 29%
[9]; Log10 Concentration -7.0
  Percent Growth: 103%
[9]; Log10 Concentration -8.0
  Percent Growth: 102%
[10]
  Log10GI50: -5.64 Molar
  Log10LC50: -4.44 Molar
  Log10TGI: -4.88 Molar
  TGI: 1.31E-5 Molar
[10]; 1.00E-5 Molar
  Growth Percent: 42.01%
[10]; Homo sapiens
  GI50: 2310 nM
[10]; [13]
  CC50: 36.4 µM
[10]; Log10 Concentration -4.0
  Percent Growth: -99%
[10]; Log10 Concentration -5.0
  Percent Growth: 13%
[10]; Log10 Concentration -6.0
  Percent Growth: 71%
[10]; Log10 Concentration -7.0
  Percent Growth: 93%
[10]; Log10 Concentration -8.0
  Percent Growth: 91%
[11]
  Log10GI50: -6.53 Molar
  Log10LC50: -4.63 Molar
  Log10TGI: -5.86 Molar
  TGI: 1.37E-6 Molar
[11]; 1.00E-5 Molar
  Growth Percent: 7.17%
[11]; Homo sapiens, HT-29
  GI50: 293 nM
  LC50: 23.7 µM
[11]; Log10 Concentration -4.0
  Percent Growth: -73%
[11]; Log10 Concentration -5.0
  Percent Growth: -36%
[11]; Log10 Concentration -6.0
  Percent Growth: 6%
[11]; Log10 Concentration -7.0
  Percent Growth: 89%
[11]; Log10 Concentration -8.0
  Percent Growth: 98%
[12]
  Log10GI50: -6.35 Molar
  Log10LC50: -4.87 Molar
  Log10TGI: -5.60 Molar
  TGI: 2.49E-6 Molar
[12]; 1.00E-5 Molar
  Growth Percent: -10.00%
[12]; Homo sapiens
  GI50: 443 nM
  LC50 (concentration killing 50% of starting cells): 13.4 µM
[12]; Log10 Concentration -4.0
  Percent Growth: -99%
[12]; Log10 Concentration -5.0
  Percent Growth: -43%
[12]; Log10 Concentration -6.0
  Percent Growth: 28%
[12]; Log10 Concentration -7.0
  Percent Growth: 90%
[12]; Log10 Concentration -8.0
  Percent Growth: 90%

From article PMC5578999, “Novel quinolone chalcones targeting colchicine-binding pocket kill multidrug-resistant cancer cells by inhibiting tubulin activity and MRP1 function” (Scientific Reports, 2017)
